Results as given in US7115753B2, “Triaryl cation antibiotics from environmental DNA” (Wisconsin Alumni Research Foundation, priority 2000, dated 2006).
Like-named read-outs stand apart in the source and are kept apart here. Marks after values point to notes of the source that are not given here.

How the values were obtained:
[1] = system: Streptomyces griseus 6501; assay: Zone of inhibition assay; format: cell-based; conditions: 10 μl drop of 250 μg/ml in DMSO
[2] = system: Salmonella typhimurium LT2; assay: Zone of inhibition assay; format: cell-based; conditions: 10 μl drop of 250 μg/ml in DMSO
[3] = system: Enterococcus faecalis 4025; assay: Zone of inhibition assay; format: cell-based; design: key: (+) 2 to 13 mm zone; (+/−) 1 mm zone; (−) no zone of inhibition; conditions: 10 μl drop of 250 μg/ml in DMSO
[4] = system: Pseudomonas aeruginosa 9020; assay: Zone of inhibition assay; format: cell-based; design: key: (+) 2 to 13 mm zone; (+/−) 1 mm zone; (−) no zone of inhibition; conditions: 10 μl drop of 250 μg/ml in DMSO
[5] = system: Candida guilliermondii Y001; assay: Zone of inhibition assay; format: cell-based; conditions: 10 μl drop of 250 μg/ml in DMSO
Escherichia coli HS997 = assay: Zone of inhibition assay; format: cell-based; conditions: 10 μl drop of 250 μg/ml in DMSO
[6] = system: Streptococcus pyogenes 8P01; assay: Zone of inhibition assay; format: cell-based; conditions: 10 μl drop of 250 μg/ml in DMSO
Erwinia herbicola IRQ = assay: Zone of inhibition assay; format: cell-based; conditions: 10 μl drop of 250 μg/ml in DMSO
[7] = system: B. cereus var. mycoides 1003; format: cell-based, Bacillus cereus var. mycoides; conditions: 10 μl drop of 250 μg/ml in DMSO
Pythium ultimum 1033 = assay: Zone of inhibition assay (fungal plug on plate); format: cell-based; design: key: (+) 2 to 13 mm zone; (+/−) 1 mm zone; (−) no zone of inhibition; conditions: DMSO-dissolved compound on plate, 23° C., 7 days
Method: (§1) Pythium ultimum (1033) and Fusarium solani f sp. glycine (90.1) were grown on ¼- strength potato dextrose agar (29) at 23° C. Plugs were cut from the fungal lawn using a #5 cork borer and placed onto the center of a fresh plate containing the DMSO-dissolved compounds. The plates were incubated 7 days, or until the organism covered the plate, at 23° C., in the dark.

[8] = system: Fusarium solani (f. sp. glycine) 90.1; assay: Zone of inhibition assay (fungal plug on plate); format: cell-based; design: key: (+) 2 to 13 mm zone; (+/−) 1 mm zone; (−) no zone of inhibition; conditions: DMSO-dissolved compound on plate, 23° C., 7 days
Method: as §1

[9] = system: Staphylococcus aureus 3001; assay: Zone of inhibition assay; format: cell-based; conditions: 10 μl drop of 250 μg/ml in DMSO
Streptococcus pyogenes = assay: Minimum inhibitory concentration (MIC) in broth culture; format: cell-based; conditions: synthetic compound
Method: (§2) Overnight cultures were prepared as for the plate inhibition assays. Culture optical densities (O.D.) were normalized to 0.15 (150 μl path length) by performing 1:1 serial dilutions (150 μl transfer into 150 μl diluent) in a 96 well microtiter plate. Inoculum cell concentrations (colony forming units/ml) were subsequently determined by performing 1:5 serial dilution series (50 μl transfer into 200 μl diluent) in a second microtiter plate. Three dilutions were plated ([…]) by mixing 50 μl of a given dilution into 20 ml of cooled BHI/YE medium and quickly pouring into a petri plate. Test compounds, both natural and synthetic, were dissolved in DMSO (2.0 mg/ml) and diluted into BHI/YE medium to a concentration of 106 μg/ml (5.35% v/v DMSO). Samples of each of the test compounds (150 μl each) were added to 3 separate wells, each containing 150 μl of BHI/YE medium (no DMSO). […] Three plates were prepared for each test organism (n=3 […]=9 per compound, per organism). Additional wells were included in duplicate on each plate for color subtraction, +/-DMSO, and minus compound controls (n=2 […]=6 per control, per organism). Ten μl of normalized inoculum was added per well. Absorbance at 590 nm was read using a […] Victor® Microtiter plate reader; double circular mixing was performed for 10 seconds prior to reading at times 0, 30 and 60 hours. The plates were statically incubated at 28° C. when not being read. Absorbance values were imported into Microsoft Excel® and analyzed graphically.

Salmonella typhimurium = assay: as above; format: cell-based; conditions: synthetic compound
Method: as §2

Staphylococcus aureus = assay: as above; format: cell-based
Method: as §2

Erwinia herbicola = assay: as above; format: cell-based; conditions: synthetic compound
Method: as §2

Bacillus subtilis = assay: as above; format: cell-based; conditions: synthetic compound
Method: as §2

c1ccc([C+](c2c[nH]c3ccccc23)c2c[nH]c3ccccc23)cc1 [Turbomycin B, turbomycin B]
+/− ((+/−) 1 mm zone): Antibiotic activity (zone of inhibition) ([5]; Natural compound) | Antibiotic activity (zone of inhibition) ([5]; Synthetic compound) | Antibiotic activity (zone of inhibition) (Escherichia coli HS997; Natural compound) | Antibiotic activity (zone of inhibition) (Escherichia coli HS997; Synthetic compound)
−: Antibiotic activity (zone of inhibition) ([3]; Natural compound) | Antibiotic activity (zone of inhibition) ([3]; Synthetic compound) | Antibiotic activity (zone of inhibition) ([4]; Natural compound) | Antibiotic activity (zone of inhibition) ([4]; Synthetic compound) | Antibiotic activity (zone of inhibition) (Pythium ultimum 1033; Natural compound) | Antibiotic activity (zone of inhibition) (Pythium ultimum 1033; Synthetic compound) | Antibiotic activity (zone of inhibition) ([8]; Natural compound) | Antibiotic activity (zone of inhibition) ([8]; Synthetic compound)
+ ((+) 2 to 13 mm zone): Antibiotic activity (zone of inhibition) ([1]; Natural compound) | Antibiotic activity (zone of inhibition) ([1]; Synthetic compound) | Antibiotic activity (zone of inhibition) ([2]; Natural compound) | Antibiotic activity (zone of inhibition) ([2]; Synthetic compound) | Antibiotic activity (zone of inhibition) ([6]; Natural compound) | Antibiotic activity (zone of inhibition) ([6]; Synthetic compound) | Antibiotic activity (zone of inhibition) (Erwinia herbicola IRQ; Natural compound) | Antibiotic activity (zone of inhibition) (Erwinia herbicola IRQ; Synthetic compound) | Antibiotic activity (zone of inhibition) ([7]; Natural compound) | Antibiotic activity (zone of inhibition) ([7]; Synthetic compound) | Antibiotic activity (zone of inhibition) ([9]; Natural compound) | Antibiotic activity (zone of inhibition) ([9]; Synthetic compound)

c1ccc2c([C+](c3c[nH]c4ccccc34)c3c[nH]c4ccccc34)c[nH]c2c1 [Turbomycin A, turbomycin A]
+ ((+) 2 to 13 mm zone): Antibiotic activity (zone of inhibition) ([1]; Natural compound) | Antibiotic activity (zone of inhibition) ([1]; Synthetic compound) | Antibiotic activity (zone of inhibition) ([2]; Natural compound) | Antibiotic activity (zone of inhibition) ([2]; Synthetic compound) | Antibiotic activity (zone of inhibition) ([6]; Natural compound) | Antibiotic activity (zone of inhibition) ([6]; Synthetic compound) | Antibiotic activity (zone of inhibition) (Erwinia herbicola IRQ; Natural compound) | Antibiotic activity (zone of inhibition) ([7]; Natural compound) | Antibiotic activity (zone of inhibition) ([7]; Synthetic compound) | Antibiotic activity (zone of inhibition) ([9]; Natural compound) | Antibiotic activity (zone of inhibition) ([9]; Synthetic compound)
−^c: Antibiotic activity (zone of inhibition) ([4]; Synthetic compound)
12.5 µg/mL: minimum inhibitory concentration (MIC) (Salmonella typhimurium)
−: Antibiotic activity (zone of inhibition) ([3]; Natural compound) | Antibiotic activity (zone of inhibition) ([3]; Synthetic compound) | Antibiotic activity (zone of inhibition) ([4]; Natural compound) | Antibiotic activity (zone of inhibition) (Pythium ultimum 1033; Natural compound) | Antibiotic activity (zone of inhibition) (Pythium ultimum 1033; Synthetic compound) | Antibiotic activity (zone of inhibition) ([8]; Natural compound) | Antibiotic activity (zone of inhibition) ([8]; Synthetic compound)
same MIC: MIC of natural product compared with synthetic compound (Staphylococcus aureus; natural product, same experiment as synthetic compound, S. aureus)
+/−^b ((+/−) 1 mm zone): Antibiotic activity (zone of inhibition) (Escherichia coli HS997; Synthetic compound)
+/− ((+/−) 1 mm zone): Antibiotic activity (zone of inhibition) ([5]; Natural compound) | Antibiotic activity (zone of inhibition) ([5]; Synthetic compound) | Antibiotic activity (zone of inhibition) (Escherichia coli HS997; Natural compound)
+^a ((+) 2 to 13 mm zone): Antibiotic activity (zone of inhibition) (Erwinia herbicola IRQ; Synthetic compound)
6.2 µg/mL: minimum inhibitory concentration (MIC) (Streptococcus pyogenes) | minimum inhibitory concentration (MIC) (Staphylococcus aureus; synthetic compound, broth culture, Staphylococcus aureus) | minimum inhibitory concentration (MIC) (Erwinia herbicola) | minimum inhibitory concentration (MIC) (Bacillus subtilis)
